Laboratory results: patent publication US6440660B1 (priority 1995, dated 2002)
Converted amounts (≈) assume the structure as drawn.

Columns and labels:
[1] = tested on: P. falciparum field isolate TM336; details: strain TM336; cited from earlier work
P. falciparum W2 = details: strain W2; cited from earlier work
[2] = tested on: P. falciparum field isolate TM346; details: cited from earlier work
[3] = tested on: P. falciparum field isolate TM335; details: cited from earlier work
[4] = tested on: P. falciparum field isolate TM352; details: strain TM352; cited from earlier work
[5] = tested on: P. falciparum field isolate PR145; details: cited from earlier work
P. falciparum W2mef = details: strain W2mef; cited from earlier work
[6] = tested on: W2mef parasites (resistant to mefloquine); assay: Mefloquine resistance reversal study, W2mef (FIGS. 2, 3, 5); assay type: cell-based, P. falciparum; details: mefloquine alone without oligonucleotide, below threshold mefloquine concentration

Compound | IC50 [1] | IC50 (P. falciparum W2) | IC50 [2] | IC50 [3] | IC50 [4] | IC50 [5] | IC50 (P. falciparum W2mef) | 3H-hypoxanthine incorporated on average [6]
CCCCN(CCCC)CCC(O)c1cc2c(Cl)cc(Cl)cc2c2cc(C(F)(F)F)ccc12 (stereo not shown) [halofantrine] | 2.8 ng/mL (≈ 0.0056 µM) | 0.3 ng/mL (≈ 0.000599 µM) | 3.7 ng/mL (≈ 0.00739 µM) | 0.61 ng/mL (≈ 0.00122 µM) | 3.0 ng/mL (≈ 0.00599 µM) | 2.0 ng/mL (≈ 0.004 µM) | – | –
C=C[C@H]1C[N@@]2CC[C@H]1C[C@H]2[C@H](O)c1ccnc2ccc(OC)cc12 [quinine] | 87 ng/mL (≈ 0.268 µM) | 74 ng/mL (≈ 0.228 µM) | – | 65 ng/mL (≈ 0.2 µM) | 1.2 ng/mL (≈ 0.0037 µM) | 90 ng/mL (≈ 0.277 µM) | – | –
OC(c1cc(C(F)(F)F)nc2c(C(F)(F)F)cccc12)C1CCCCN1 (stereo not shown) [mefloquine] | 15 ng/mL (≈ 0.0396 µM) | 2 ng/mL (≈ 0.00529 µM) | 20 ng/mL (≈ 0.0529 µM) | 6 ng/mL (≈ 0.0159 µM) | 22 ng/mL (≈ 0.0582 µM) | 10 ng/mL (≈ 0.0264 µM) | 16 ng/mL (≈ 0.0423 µM) | 11,000 cpm
